Among the test systems are Cladosporium herbarum; Botrytis cinerea; Alternaria alternata; Cupriavidus necator H16; Escherichia coli JM109.
Holding throughout (assay): ≥ marks a high value that may be exact or a test limit, other limits are often not marked, values filed in µg/mL are converted to µM
Test [1] concerns Salmonella enterica subsp. enterica serovar Typhimurium ATCC 14028.
Test [2] concerns Staphylococcus aureus ATCC 6538.
Test [3] concerns Escherichia coli ATCC 11219.
Test [4] relates to Pseudomonas aeruginosa ATCC 13388.
The subject of test [5] is Klebsiella pneumoniae ATCC 10031.
The subject of test [6] is Bacillus cereus ATCC 11778.
The subject of test [7] is Staphylococcus aureus ATCC 25923.
Test [8] relates to Escherichia coli ATCC 35218.
The test system of test [9] is Pseudomonas aeruginosa ATCC 9027.
Test [10] deals with Xanthomonas vesicatoria DSM 50861.
The subject of test [11] is Pseudomonas syringae pv. tomato DC3000.
Test [12] concerns Pseudomonas corrugata DSM 7228.
For test [13], the system named is Pseudomonas syringae pv. syringae DSM 10604.
Test [14] has as its system Pectobacterium carotovorum subsp. carotovorum DSM 30168.
Test [15] relates to Clavibacter michiganensis subsp. michiganensis DSM 46294.
The test system of test [16] is Xanthomonas axonopodis pv. glycines ISBF 327.
Test [17] has as its system Salmonella enterica subsp. enterica serovar Enteritidis ATCC 13076.
In test [18] the test system is Escherichia coli ATCC 25922.
The test system of test [19] is Listeria monocytogenes ATCC 19115.
Test [20] has as its system Staphylococcus aureus ATCC 43300.
Test [21] deals with Staphylococcus aureus ATCC BAA-39.
Test [22] relates to Klebsiella pneumoniae ATCC 13883.
Test [23] has as its system Escherichia coli BL21(DE3).
Test [24] concerns Pseudomonas putida GPp104.

From DBAASP come the findings set out here.

≈ marks a conversion by molar mass, not a printed value. Where “and” joins values, the source holds several entries; their conditions need not be identical. Equal values may be shown once.

With `CC[C@H](C)[C@H](NC(=O)CN)C(=O)N[C@@H](Cc1cnc[nH]1)C(=O)N[C@@H](CC(=O)O)C(=O)N[C@H](C(=O)N[C@@H](C)C(=O)N[C@@H](CCCCN)C(=O)N[C@@H](Cc1ccc(O)cc1)C(=O)NCC(=O)N[C@@H](CCCCN)C(=O)N1CCC[C@H]1C(=O)N[C@@H](CO)C(N)=O)[C@@H](C)CC` [GIHDIAKYGKPS], the minimal inhibitory concentration (MIC) in [1] is more than 50 µM; in test [2] it was 5 µM (≈ 6.42 µg/mL); in [3] it was not below 50 µM; in [4], not below 50 µM; in test [5], 20 µM (≈ 25.7 µg/mL).

Consider `CC(C)C[C@H](NC(=O)[C@@H](NC(=O)[C@H](CCCCN)NC(=O)[C@@H](N)CCCCN)C(C)C)C(=O)N[C@@H](CCCCN)C(=O)N[C@@H](C)C(=O)N[C@@H](C)C(=O)N[C@@H](C)C(N)=O` [KKVLKAAA], for which the MIC in [6] is not below 50 µM; in test [7] it was more than 50 µM; in test [8], not below 50 µM; in [9] it was more than 50 µM.

Turning to `CC[C@H](C)[C@H](NC(=O)[C@H](CC(C)C)NC(=O)[C@H](CCCCN)NC(=O)[C@H](CCCN=C(N)N)NC(=O)[C@@H](N)CCCCN)C(=O)N[C@@H](Cc1ccccc1)C(=O)N[C@@H](CC(C)C)C(=O)N[C@@H](C)C(=O)N[C@@H](C)C(=O)N[C@@H](Cc1ccccc1)C(=O)N[C@@H](CC(C)C)C(=O)N[C@@H](C)C(=O)N[C@@H](C)C(=O)N[C@@H](CC(C)C)C(=O)N[C@@H](C)C(=O)N[C@@H](CC(C)C)C(=O)N[C@@H](Cc1ccccc1)C(=O)N[C@@H](CCCCN)C(=O)N[C@@H](CCCCN)C(=O)N[C@@H](CCCN=C(N)N)C(N)=O` [KRKLIFLAAFLAALALFKKR], the minimum inhibitory concentration (MIC) in test [10] is 8.62 µM (≈ 20 µg/mL); in test [11] it was 17.2 µM (≈ 40 µg/mL); in test [12], 17.2 µM (≈ 40 µg/mL); in test [13], 17.2 µM (≈ 40 µg/mL); in [14], 17.2 µM (≈ 40 µg/mL); against Cladosporium herbarum it was 17.2 µM (≈ 40 µg/mL). Besides, the minimum inhibitory concentration (MIC) in [15] was 1.08 µM (≈ 2.5 µg/mL); in the test with Botrytis cinerea it was not below 43.1 µM; with Alternaria alternata, not below 43.1 µM.

Take `CC[C@H](C)[C@H](NC(=O)[C@H](C)NC(=O)[C@@H]1CCCN1C(=O)[C@H](CCCN=C(N)N)NC(=O)[C@@H](N)CC(C)C)C(=O)N[C@@H](CC(C)C)C(=O)N[C@H](C(=O)N[C@@H](CCCN=C(N)N)C(=O)N[C@H](C(=O)N[C@@H](CCCCN)C(=O)NCC(=O)N[C@@H](CCCCN)C(=O)NCC(=O)N[C@@H](CC(C)C)C(N)=O)C(C)C)C(C)C` [LRPAILVRVKGKGL]: in test [16], the MIC is not below 42 µM.

Take `CC[C@H](C)[C@H](NC(=O)[C@H](CCCCN)NC(=O)[C@H](CCCN=C(N)N)NC(=O)[C@H](CC(C)C)NC(=O)[C@H](Cc1ccccc1)NC(=O)[C@H](CCCN=C(N)N)NC(=O)CNC(=O)[C@H](Cc1ccccc1)NC(=O)[C@H](CCCN=C(N)N)NC(=O)CNC(=O)[C@H](CCCN=C(N)N)NC(=O)[C@H](CCC(N)=O)NC(=O)[C@@H](NC(=O)[C@@H](N)CC(C)C)C(C)C)C(=O)N[C@@H](CCCN=C(N)N)C(=O)O` [LVQRGRFGRFLRKIR]: the MIC in [17] is 4 µM and 5.66 µM; in test [18] it was 16 µM (≈ 30.4 µg/mL); in test [19] it was 5.66 µM and 11.3 µM; in test [7] it was 8 µM and 16 µM; in [20] it was 5.66 µM and 16 µM; in test [21], 5.66 µM and 16 µM. In test [22], the MIC is 8 µM and 16 µM.

For the molecule `CC[C@H](C)[C@H](NC(=O)[C@H](Cc1ccc(O)cc1)NC(=O)[C@@H](NC(=O)[C@@H]1CCCN1C(=O)[C@H](CCCN=C(N)N)NC(=O)[C@@H](NC(=O)CNC(=O)[C@@H](N)CCCN=C(N)N)C(C)C)C(C)C)C(=O)N1CCC[C@H]1C(=O)N[C@@H](CCC(N)=O)C(=O)N1CCC[C@H]1C(=O)N[C@@H](CCCN=C(N)N)C(=O)N1CCC[C@H]1C(=O)N1CCC[C@H]1C(=O)N[C@@H](Cc1cnc[nH]1)C(=O)N1CCC[C@H]1C(=O)N[C@@H](CCCN=C(N)N)C(=O)N[C@@H](CC(C)C)C(=O)O` [RGVRPVYIPQPRPPHPRL], the MIC in the test on Cupriavidus necator H16 came to 25 µM (≈ 53.4 µg/mL); against Escherichia coli JM109, 6.25 µM (≈ 13.3 µg/mL); in test [23] it was 0.313 µM (≈ 0.668 µg/mL); in [24] it was 6.25 µM (≈ 13.3 µg/mL).

For `CC(C)[C@H](NC(=O)[C@H](C)NC(=O)[C@H](CCCN=C(N)N)NC(=O)[C@H](CCCCN)NC(=O)[C@H](C)NC(=O)[C@H](Cc1ccccc1)NC(=O)[C@H](CCCN=C(N)N)NC(=O)[C@H](C)NC(=O)[C@H](Cc1ccccc1)NC(=O)[C@H](CCCN=C(N)N)NC(=O)[C@H](CCCCN)NC(=O)[C@@H](N)CCCN=C(N)N)C(N)=O` [RKRFARFAKRAV], the minimal inhibitory concentration (MIC) in test [10] came out at 26.6 µM (≈ 40 µg/mL); in test [11], 3.32 µM (≈ 5 µg/mL); in test [12], 26.6 µM (≈ 40 µg/mL); in [13], 26.6 µM (≈ 40 µg/mL); in test [14], 26.6 µM (≈ 40 µg/mL); with Cladosporium herbarum, 26.6 µM (≈ 40 µg/mL). For the same molecule, the MIC in [15] is 13.3 µM (≈ 20 µg/mL); against Botrytis cinerea, not below 66.4 µM; against Alternaria alternata, not below 66.4 µM.

`CC[C@H](C)[C@H](NC(=O)[C@H](Cc1ccc(O)cc1)NC(=O)[C@@H](NC(=O)[C@@H]1CCCN1C(=O)[C@H](CCCN=C(N)N)NC(=O)[C@@H]1CCCN1C(=O)[C@H](CC(C)C)NC(=O)[C@@H](N)CCCN=C(N)N)C(C)C)C(=O)N1CCC[C@H]1C(=O)N[C@@H](CCC(N)=O)C(=O)N1CCC[C@H]1C(=O)N[C@@H](CCCN=C(N)N)C(=O)N1CCC[C@H]1C(=O)N1CCC[C@H]1C(=O)N[C@@H](Cc1cnc[nH]1)C(=O)N1CCC[C@H]1C(=O)N[C@@H](CCCN=C(N)N)C(=O)N[C@@H](CC(C)C)C(=O)O` [RLPRPVYIPQPRPPHPRL]: the MIC in the test on Cupriavidus necator H16 was not below 50 µM; against Escherichia coli JM109 it was 25 µM (≈ 54.7 µg/mL); in test [23], 1.25 µM (≈ 2.74 µg/mL); in test [24], 12.5 µM (≈ 27.4 µg/mL).

`CC[C@H](C)[C@H](NC(=O)[C@@H](NC(=O)[C@@H](NC(=O)[C@@H](NC(=O)[C@@H](NC(=O)[C@H](CCCCN)NC(=O)[C@@H]1CCCN1C(=O)[C@H](CCCN=C(N)N)NC(=O)[C@H](Cc1ccccc1)NC(=O)[C@H](CCCN=C(N)N)NC(=O)[C@@H](N)CCCN=C(N)N)C(C)C)[C@@H](C)O)[C@@H](C)CC)[C@@H](C)O)C(=O)N[C@@H](CCC(N)=O)C(=O)NCC(=O)N[C@@H](CO)C(=O)N[C@@H](C)C(=O)N[C@@H](CCCN=C(N)N)C(=O)N[C@@H](Cc1ccccc1)C(=O)O` [RRFRPKVTITIQGSARF]: the MIC is 4 µM (≈ 8.13 µg/mL) in test [17]; 5.66 µM and 8 µM in test [18]; 2.83 µM and 4 µM in test [19]; 2.83 µM and 4 µM in test [7]; 2 µM and 4 µM in test [20]; 4 µM (≈ 8.13 µg/mL) in test [21]. For the same molecule, in [22], the MIC turned out to be 4 µM (≈ 8.13 µg/mL).

Turning to `CC[C@H](C)[C@H](NC(=O)CNC(=O)[C@@H](N)Cc1c[nH]c2ccccc12)C(=O)N[C@@H](CCCN=C(N)N)C(=O)N[C@@H](CCCN=C(N)N)C(=O)N[C@H](C(=O)N[C@@H](CC(C)C)C(=O)N[C@@H](CCCCN)C(=O)N[C@@H](Cc1ccc(O)cc1)C(=O)NCC(=O)N[C@@H](CCCCN)C(=O)N[C@@H](CCCN=C(N)N)C(=O)N[C@@H](CO)C(=O)O)[C@@H](C)CC` [WGIRRILKYGKRS], the MIC in test [1] turned out to be 10 µM (≈ 16.3 µg/mL); in [2], 4 µM (≈ 6.53 µg/mL); in test [3] it was 10 µM (≈ 16.3 µg/mL); in test [4], 4 µM (≈ 6.53 µg/mL); in test [5], 20 µM (≈ 32.7 µg/mL).

A word on the MIC: it is the least concentration at which growth counts as inhibited. A higher MIC goes with weaker potency.
